Earlier results as cited in patent US20040120994A1, “Transdermal therapeutic system containing testorone and method for its production thereof” (priority 2001, published 2004).

What was measured:
[1] = test system: transport proteins; conditions: in the blood

For C[C@]12CC[C@H]3[C@@H](CCC4=CC(=O)CC[C@@]43C)[C@@H]1CC[C@@H]2O [testosterone], the plasma half-life is given as “around 80 min” and the “testosterone bound to transport proteins” value [1] is given as 98%.
